Source: US20210187012A1, “ANTI-COAGULANT AGENT, ANTICOAGULATION DEVICE, BLOOD COAGULATION CURING METHOD, VASCULAR ENDOTHELIAL CELL FUNCTION IMPROVING METHOD, AND METABOLISM IMPROVING METHOD” (H2BANK CO., LTD., priority 2018, published 2021)

Test system: membrane potential of mitochondria
Details: in the presence of molecular hydrogen

## [HH] [hydrogen]
  signal of TMRE (membrane potential) reduced: about 10%
